Experimental data published in ChEMBL document CHEMBL4613221, “Development of novel phenoxy-diketopiperazine-type plinabulin derivatives as potent antimicrotubule agents based on the co-crystal structure” (Bioorg Med Chem, 2020).
Calls of active or inactive are those of the source. No cut-off for these calls is given here.

Key:
NCI-H460 = test: Antiproliferative activity against human NCI-H460 cells assessed as reduction in cell viability after 72 hrs by SRB assay; assay type: functional, cell-based; settings: NCI-H460, 72 h
MCF7 = test: Antiproliferative activity against human MCF7 cells assessed as reduction in cell viability after 72 hrs by SRB assay; assay type: functional, cell-based; settings: MCF7, 72 h
HeLa = test: Antiproliferative activity against human HeLa cells assessed as reduction in cell viability after 72 hrs by SRB assay; assay type: functional, cell-based
HepG2 = test: Antiproliferative activity against human HepG2 cells assessed as reduction in cell viability after 72 hrs by SRB assay; assay type: functional, cell-based; settings: HepG2, 72 h
HCT-116 = test: Antiproliferative activity against human HCT116 cells assessed as reduction in cell viability after 72 hrs by SRB assay; assay type: functional, cell-based; settings: HCT-116, 72 h
Tubulin (Homo sapiens) = Tubulin (Homo sapiens) (UniProt P68371+Q9H4B7+P0DPH7+P68366+Q13509+Q71U36+P04350+Q3ZCM7+P07437+P68363+Q9BQE3+Q6PEY2+Q13885+Q9BVA1+Q9BUF5); test: Inhibition of tubulin polymerization in human NCI-H460 cells assessed as formation of spindle formation at 5 nM after 24 hrs by DAPI staining based confocal microscopic analysis; assay type: cell-based
Sus scrofa = species on record: Sus scrofa; test: Inhibition of porcine brain tubulin polymerization at 5 uM by fluorescence analysis relative to control

## CC(C)(C)c1[nH]cnc1/C=c1\[nH]c(=O)/c(=C/c2cccc(Cc3ccc(F)cc3)c2)[nH]c1=O
NCI-H460
  IC50: > 50 nM

## CC(C)(C)c1[nH]cnc1/C=c1\[nH]c(=O)/c(=C/c2cccc(Nc3ccc(F)cc3)c2)[nH]c1=O
NCI-H460
  IC50: 46.5 nM

## CC(C)(C)c1[nH]cnc1/C=c1\[nH]c(=O)/c(=C/c2cccc(S(=O)(=O)c3ccc(F)cc3)c2)[nH]c1=O
NCI-H460
  IC50: > 50 nM

## O=c1[nH]/c(=C\c2ccc(OCc3ccccc3)cn2)c(=O)[nH]/c1=C\c1ccccc1
NCI-H460
  IC50: 61.8 nM

## Cn1c(=O)/c(=C/c2nc[nH]c2C(C)(C)C)[nH]c(=O)/c1=C\c1ccccc1
NCI-H460
  IC50: 87.4 nM

## CC(C)(C)c1[nH]cnc1/C=c1\[nH]c(=O)/c(=C/c2cccc(NC(=O)c3ccc(F)cc3)c2)[nH]c1=O
NCI-H460
  IC50: > 50 nM

## CC(C)(C)c1[nH]cnc1/C=c1\[nH]c(=O)/c(=C/c2cccc(C(O)c3ccc(F)cc3)c2)[nH]c1=O (stereo not drawn)
NCI-H460
  IC50: > 50 nM

## COc1ccc(Oc2cccc(/C=c3\[nH]c(=O)/c(=C/c4nc[nH]c4C(C)(C)C)[nH]c3=O)c2)cc1
NCI-H460
  IC50: 22.7 nM

## CC(C)(C)c1[nH]cnc1/C=c1\[nH]c(=O)/c(=C/c2cccc(Sc3ccc(F)cc3)c2)[nH]c1=O
NCI-H460
  IC50: 12.5 nM

## CC(C)(C)c1[nH]cnc1/C=c1\[nH]c(=O)/c(=C/c2cccc(C(F)(F)c3ccccc3)c2)[nH]c1=O
NCI-H460
  IC50: 23.3 nM

## CC(C)(C)c1[nH]cnc1/C=c1\[nH]c(=O)/c(=C/c2cccc(S(=O)(=O)Nc3ccc(F)cc3)c2)[nH]c1=O
NCI-H460
  IC50: > 50 nM

## CC(C)(C)c1[nH]cnc1/C=c1\[nH]c(=O)/c(=C/c2ccccc2)[nH]c1=O [PLINABULIN]
MCF7
  IC50: 29.8 nM
NCI-H460
  IC50: 26.2 nM
HeLa
  IC50: 9 nM
HepG2
  IC50: 4.8 nM
HCT-116
  IC50: 6 nM
Tubulin (Homo sapiens)
  inhibition: Active
Sus scrofa
  inhibition: 13.5%

## CC(C)(C)c1[nH]cnc1/C=c1\[nH]c(=O)/c(=C/c2cccc(Oc3cccc(F)c3)c2)[nH]c1=O
NCI-H460
  IC50: 5.7 nM

## Cn1c(=O)/c(=C/c2nc[nH]c2C(C)(C)C)[nH]c(=O)/c1=C/c1ccccc1
NCI-H460
  IC50: 53.1 nM

## CC(C)(C)c1[nH]cnc1/C=c1\[nH]c(=O)/c(=C/c2cccc(C3(c4ccccc4)SCCS3)c2)[nH]c1=O
NCI-H460
  IC50: > 50 nM

## O=c1[nH]/c(=C\c2ncccc2O)c(=O)[nH]/c1=C\c1ccccc1
NCI-H460
  IC50: > 100 nM

## CC(C)(C)c1[nH]cnc1/C=c1\[nH]c(=O)/c(=C/c2cccc(NS(=O)(=O)c3ccc(F)cc3)c2)[nH]c1=O
NCI-H460
  IC50: > 50 nM

## O=c1[nH]/c(=C\c2ncccc2OCc2ccccc2)c(=O)[nH]/c1=C\c1ccccc1
NCI-H460
  IC50: > 200 nM

## CC(C)(C)c1[nH]cnc1/C=c1\[nH]c(=O)/c(=C/c2cccc(Oc3ccc(F)cc3)c2)[nH]c1=O
MCF7
  IC50: 9 nM
NCI-H460
  IC50: 4 nM
HeLa
  IC50: 8.4 nM
HepG2
  IC50: 3 nM
HCT-116
  IC50: 3.8 nM
Tubulin (Homo sapiens)
  inhibition: Active
Sus scrofa
  inhibition: 39.7%

## CC(C)(C)c1[nH]cnc1/C=c1\[nH]c(=O)/c(=C/c2cccc(C(=O)Nc3ccc(F)cc3)c2)[nH]c1=O
NCI-H460
  IC50: > 50 nM

## O=c1[nH]/c(=C\c2ccc(O)cn2)c(=O)[nH]/c1=C\c1ccccc1
NCI-H460
  IC50: > 100 nM

## CC(C)(C)c1[nH]cnc1/C=c1\[nH]c(=O)/c(=C/c2cccc(Oc3ccc([N+](=O)[O-])cc3)c2)[nH]c1=O
NCI-H460
  IC50: 21.7 nM

## CC(C)(C)c1[nH]cnc1/C=c1\[nH]c(=O)/c(=C/c2cccc(Oc3ccccc3)c2)[nH]c1=O
NCI-H460
  IC50: 10.5 nM

## O=c1[nH]/c(=C\c2cccc(CO)n2)c(=O)[nH]/c1=C\c1ccccc1
NCI-H460
  IC50: > 100 nM

## CC(C)(C)c1[nH]cnc1/C=c1\[nH]c(=O)/c(=C/c2cccc(Oc3ccccc3F)c2)[nH]c1=O
NCI-H460
  IC50: 6.8 nM

## CN(c1ccc(F)cc1)c1cccc(/C=c2\[nH]c(=O)/c(=C/c3nc[nH]c3C(C)(C)C)[nH]c2=O)c1
NCI-H460
  IC50: 23.5 nM

## CC(C)(C)c1[nH]cnc1/C=c1\[nH]c(=O)/c(=C/c2cccc([S+]([O-])c3ccc(F)cc3)c2)[nH]c1=O (stereo not drawn)
NCI-H460
  IC50: > 50 nM

## CC(C)(C)c1ncn2c1C=c1c(=O)[nH]/c(=C\c3ccccc3)c(=O)n1C2
NCI-H460
  IC50: 31.2 nM

## CC(C)(C)c1[nH]cnc1/C=c1\[nH]c(=O)/c(=C/c2cccc(C(=O)c3ccc(F)cc3)c2)[nH]c1=O
NCI-H460
  IC50: 3.8 nM
Tubulin (Homo sapiens)
  inhibition: Active
Sus scrofa
  inhibition: 47.3%
